This is an account of results in article PMC2911999 (Chemical biology & drug design, 2010).

Sequence of rhodopsin (P02699 whole entry): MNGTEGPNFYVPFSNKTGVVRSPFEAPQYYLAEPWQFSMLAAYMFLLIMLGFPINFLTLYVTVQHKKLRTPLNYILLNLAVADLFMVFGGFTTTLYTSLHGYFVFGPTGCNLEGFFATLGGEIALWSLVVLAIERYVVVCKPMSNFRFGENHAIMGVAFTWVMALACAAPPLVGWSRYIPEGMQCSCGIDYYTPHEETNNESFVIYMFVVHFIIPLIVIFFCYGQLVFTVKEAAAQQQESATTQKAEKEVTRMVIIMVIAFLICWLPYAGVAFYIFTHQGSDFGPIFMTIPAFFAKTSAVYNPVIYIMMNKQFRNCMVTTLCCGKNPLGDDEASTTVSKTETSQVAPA

The experiment addresses rhodopsin (Bos taurus, UniProt P02699). The experiment is described as follows: extra MII stabilization assay. It is filed as biochemical.
By EC50 is commonly meant the midpoint of the concentration-response curve. RJC 01340 [compound 3] returned an EC50 of 16.3 ± 12.3 mM.
The same measure for KM 05703 [compound 4]: 3 ± 0.28 mM; for AW 00987 [compound 5]: 11.8 ± 6.7 mM.
